Data on eight compounds can be found in patent US10208000B2, “Eis inhibitors” (priority 2015, dated 2019).

The test relates to K204 Mtb. Type of test: cell-based, Mycobacterium tuberculosis.
Turning to `CC1=C(c2ccc(F)cc2)S(=O)(=O)N=C1NCc1ccccc1` [Compound 89b], the “overcoming resistance to KAN in Mtb K204 (in words)” value (from here on “overcoming resistance to KAN”) is on record as “did not overcome resistance to KAN”. `CC1=C(c2ccc(C)cc2)S(=O)(=O)N=C1NCCN1CCOCC1` [Compound 35e]: the “overcoming resistance to KAN” value is “did not overcome resistance to KAN”. With `CC1=C(c2ccc(F)cc2)S(=O)(=O)N=C1NCc1ccco1` [Compound 87b] the entry was “did not overcome resistance to KAN”; with `CC1=C(c2ccc(C)c(C)c2)S(=O)(=O)N=C1NCC(=O)NCc1ccc2c(c1)OCO2` [Compound 115i], “did not overcome resistance to KAN”. For `CCCNC1=NS(=O)(=O)C(c2ccc(C)c(C)c2)=C1C` [Compound 139i], the “overcoming resistance to KAN” value was “did not overcome resistance to KAN”. Consider `CCCNC1=NS(=O)(=O)C(c2ccc(C)cc2)=C1C` [Compound 139e], for which the “overcoming resistance to KAN” value was “did not overcome resistance to KAN”. For `CCN1CCN(CCNC2=NS(=O)(=O)C(c3ccc(OC)cc3)=C2C)CC1` [Compound 37d], the “overcoming resistance to KAN” value is “did not overcome resistance to KAN”. With `CCCNC1=NS(=O)(=O)C(c2ccc(F)cc2)=C1C` [Compound 139b] the entry was “did not overcome resistance to KAN”.
